Assay: recombinant UMI read abundance after kanamycin selection (control-corrected) (log10(CPM+1)); higher = more efficient recombination; extreme values may be limits of the assay; sequences stand for … in AGTGCAGAGAAAATCGGCCAGTTTTCTCTGCCTGCAGTCCGCATGCCGTGGGACCCCTTGGGTTCTAACCTGTTGCCTAGATTTATGCAGCGGACTGCCTTTCTCCCAAAGTGATAAACCGG…AGGTTGGTTTCACT; site = the 11-nt donor
Procedure, shortened: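 Each donor and donor-binding-loop pair was tracked by a 12-nt UMI on a plasmid carrying a promoterless kanamycin gene. With a second plasmid supplying a fixed target and T7-inducible IS621 bridge recombinase, the pool was plated in Escherichia coli on IPTG (0.07 mM) plus kanamycin or unselected. Sequencing of recombinant UMIs across the donor–target junction gave counts expressed as log10(CPM+1) after replicate averaging and control-derived scaling.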

Row | Sequence | recombinant UMI read abundance (log10)
1 | TATTCCCCATGGACCGGTTTTCCCGGTAATCCGTATTTGTA (site TGTTCCCCTTA) | 0.254
2 | TATTCCCCATGGACCGGTTTTCCCGGTAATCCGTATTTGTA (site TTTTCCCCTTA) | 0.0134
3 | TATTCGGCATGGACCGGTTTTCCCGGTAATCCGTATTTGTG (site TATTAGGCTCA) | 0.0202
4 | TATTCGGCATGGACCGGTTTTCCCGGTAATCCGTATTTGTG (site TATTCGGCTCA) | 0.131
5 | TATTCGGCATGGACCGGTTTTCCCGGTAATCCGTATTTGTG (site TATTGGGCTCA) | 0.00845
6 | TATTCGGCATGGACCGGTTTTCCCGGTAATCCGTATTTGTG (site TATTTGGCTCA) | 0.0132
7 | TATTGCACATGGACCGGTTTTCCCGGTAATCCGTATTTGGT (site TATTGCACTAC) | 0.029
8 | TATTTGGCATGGACCGGTTTTCCCGGTAATCCGTATTTGCG (site TATTTGGCTCA) | 0.0189
9 | TATTTGGCATGGACCGGTTTTCCCGGTAATCCGTATTTGCG (site TATTTGGCTCC) | 0.0115
10 | TATTTGGCATGGACCGGTTTTCCCGGTAATCCGTATTTGCG (site TATTTGGCTCG) | 0.0194
11 | TATTTGGCATGGACCGGTTTTCCCGGTAATCCGTATTTGCG (site TATTTGGCTCT) | 0.0118
12 | TATTTGGCATGGACCGGTTTTCCCGGTAATCCGTATTTGTC (site TATTTGGCTAA) | 0.0189
13 | TATTTGGCATGGACCGGTTTTCCCGGTAATCCGTATTTGTC (site TATTTGGCTCA) | 0.00726
14 | TATTTGGCATGGACCGGTTTTCCCGGTAATCCGTATTTGTC (site TATTTGGCTGA) | 0
15 | TATTTGGCATGGACCGGTTTTCCCGGTAATCCGTATTTGTC (site TATTTGGCTTA) | 0.00596
16 | TATTTGGCATGGACCGGTTTTCCCGGTAATCCGTATTTGTG (site AATTTGGCTCA) | 0.0279
17 | TATTTGGCATGGACCGGTTTTCCCGGTAATCCGTATTTGTG (site CATTTGGCTCA) | 0.0142
18 | TATTTGGCATGGACCGGTTTTCCCGGTAATCCGTATTTGTG (site GATTTGGCTCA) | 0.026
19 | TATTTGGCATGGACCGGTTTTCCCGGTAATCCGTATTTGTG (site TAATTGGCTCA) | 0.0238
20 | TATTTGGCATGGACCGGTTTTCCCGGTAATCCGTATTTGTG (site TACTTGGCTCA) | 0.00946
21 | TATTTGGCATGGACCGGTTTTCCCGGTAATCCGTATTTGTG (site TAGTTGGCTCA) | 0.00343
22 | TATTTGGCATGGACCGGTTTTCCCGGTAATCCGTATTTGTG (site TATATGGCTCA) | 0.00476
23 | TATTTGGCATGGACCGGTTTTCCCGGTAATCCGTATTTGTG (site TATCTGGCTCA) | 0.00736
24 | TATTTGGCATGGACCGGTTTTCCCGGTAATCCGTATTTGTG (site TATGTGGCTCA) | 0.0139
25 | TATTTGGCATGGACCGGTTTTCCCGGTAATCCGTATTTGTG (site TATTAGGCTCA) | 0.00968

Row | Sequence | recombinant UMI read abundance (log10)
26 | TATTTGGCATGGACCGGTTTTCCCGGTAATCCGTATTTGTG (site TATTCGGCTCA) | 0.0142
27 | TATTTGGCATGGACCGGTTTTCCCGGTAATCCGTATTTGTG (site TATTGGGCTCA) | 0.00686
28 | TATTTGGCATGGACCGGTTTTCCCGGTAATCCGTATTTGTG (site TATTTAGCTCA) | 0.0189
29 | TATTTGGCATGGACCGGTTTTCCCGGTAATCCGTATTTGTG (site TATTTCGCTCA) | 0.00607
30 | TATTTGGCATGGACCGGTTTTCCCGGTAATCCGTATTTGTG (site TATTTGACTCA) | 0.0103
31 | TATTTGGCATGGACCGGTTTTCCCGGTAATCCGTATTTGTG (site TATTTGCCTCA) | 0.00864
32 | TATTTGGCATGGACCGGTTTTCCCGGTAATCCGTATTTGTG (site TATTTGGCTAA) | 0.0123
33 | TATTTGGCATGGACCGGTTTTCCCGGTAATCCGTATTTGTG (site TATTTGGCTCA) | 0.0246
34 | TATTTGGCATGGACCGGTTTTCCCGGTAATCCGTATTTGTG (site TATTTGGCTCC) | 0.0133
35 | TATTTGGCATGGACCGGTTTTCCCGGTAATCCGTATTTGTG (site TATTTGGCTCG) | 0.00904
36 | TATTTGGCATGGACCGGTTTTCCCGGTAATCCGTATTTGTG (site TATTTGGCTCT) | 0.0103
37 | TATTTGGCATGGACCGGTTTTCCCGGTAATCCGTATTTGTG (site TATTTGGCTGA) | 0
38 | TATTTGGCATGGACCGGTTTTCCCGGTAATCCGTATTTGTG (site TATTTGGCTTA) | 0.0236
39 | TATTTGGCATGGACCGGTTTTCCCGGTAATCCGTATTTGTG (site TATTTGTCTCA) | 0.0606
40 | TATTTGGCATGGACCGGTTTTCCCGGTAATCCGTATTTGTG (site TATTTTGCTCA) | 0.0154
41 | TATTTGGCATGGACCGGTTTTCCCGGTAATCCGTATTTGTG (site TCTTTGGCTCA) | 0.00921
42 | TATTTGGCATGGACCGGTTTTCCCGGTAATCCGTATTTGTG (site TGTTTGGCTCA) | 0.00811
43 | TATTTGGCATGGACCGGTTTTCCCGGTAATCCGTATTTGTG (site TTTTTGGCTCA) | 0.0282
44 | TCAAAGACATGGACCGGTTTTCCCGGTAATCCGTATTTGCG (site TCAAAGACTCG) | 1.9
45 | TCAAAGACATGGACCGGTTTTCCCGGTAATCCGTATTTGCG (site TCACAGACTCG) | 0.546
46 | TCAAAGACATGGACCGGTTTTCCCGGTAATCCGTATTTGCG (site TCAGAGACTCG) | 0.87
47 | TCAAAGACATGGACCGGTTTTCCCGGTAATCCGTATTTGCG (site TCATAGACTCG) | 0.773
48 | TCAACCGCATGGACCGGTTTTCCCGGTAATCCGTATTTGCG (site TCAACCGCTCG) | 0
49 | TCAACCGCATGGACCGGTTTTCCCGGTAATCCGTATTTGCG (site TCCACCGCTCG) | 0
50 | TCAACCGCATGGACCGGTTTTCCCGGTAATCCGTATTTGCG (site TCGACCGCTCG) | 0.00292

Row | Sequence | recombinant UMI read abundance (log10)
51 | TCAACCGCATGGACCGGTTTTCCCGGTAATCCGTATTTGCG (site TCTACCGCTCG) | 0
52 | TCAACGGCATGGACCGGTTTTCCCGGTAATCCGTATTTGCC (site TCAACGGCTGG) | 0.143
53 | TCAAGCACATGGACCGGTTTTCCCGGTAATCCGTATTTGAT (site TCAAGCACTAT) | 1.94
54 | TCAAGTCCATGGACCGGTTTTCCCGGTAATCCGTATTTGTA (site TAAAGTCCTTA) | 0.314
55 | TCAAGTCCATGGACCGGTTTTCCCGGTAATCCGTATTTGTA (site TCAAGTCCTTA) | 1.01
56 | TCAAGTCCATGGACCGGTTTTCCCGGTAATCCGTATTTGTA (site TGAAGTCCTTA) | 0.226
57 | TCAAGTCCATGGACCGGTTTTCCCGGTAATCCGTATTTGTA (site TTAAGTCCTTA) | 0.0663
58 | TCAATGACATGGACCGGTTTTCCCGGTAATCCGTATTTGGT (site TCAATGACTAC) | 0.953
59 | TCACACCCATGGACCGGTTTTCCCGGTAATCCGTATTTGCC (site TCACACCCTGG) | 0.92
60 | TCACAGACATGGACCGGTTTTCCCGGTAATCCGTATTTGCG (site TCAAAGACTCG) | 0.308
61 | TCACAGACATGGACCGGTTTTCCCGGTAATCCGTATTTGCG (site TCACAGACTCG) | 2.16
62 | TCACAGACATGGACCGGTTTTCCCGGTAATCCGTATTTGCG (site TCAGAGACTCG) | 0.267
63 | TCACAGACATGGACCGGTTTTCCCGGTAATCCGTATTTGCG (site TCATAGACTCG) | 0.29
64 | TCACATCCATGGACCGGTTTTCCCGGTAATCCGTATTTGAC (site ACACATCCTGT) | 0
65 | TCACATCCATGGACCGGTTTTCCCGGTAATCCGTATTTGAC (site CCACATCCTGT) | 0
66 | TCACATCCATGGACCGGTTTTCCCGGTAATCCGTATTTGAC (site GCACATCCTGT) | 0
67 | TCACATCCATGGACCGGTTTTCCCGGTAATCCGTATTTGAC (site TCACATCCTGT) | 0
68 | TCACCCGCATGGACCGGTTTTCCCGGTAATCCGTATTTGGT (site TCACCCGCTAC) | 0.206
69 | TCACCTTCATGGACCGGTTTTCCCGGTAATCCGTATTTGGT (site TCACCTTCTAC) | 0.0163
70 | TCACGAACATGGACCGGTTTTCCCGGTAATCCGTATTTGTC (site ACACGAACTGA) | 0
71 | TCACGAACATGGACCGGTTTTCCCGGTAATCCGTATTTGTC (site CCACGAACTGA) | 0.736
72 | TCACGAACATGGACCGGTTTTCCCGGTAATCCGTATTTGTC (site GCACGAACTGA) | 0
73 | TCACGAACATGGACCGGTTTTCCCGGTAATCCGTATTTGTC (site TCACGAACTGA) | 0
74 | TCACGAGCATGGACCGGTTTTCCCGGTAATCCGTATTTGAA (site TCACGAGCTTT) | 1.23
75 | TCACGCACATGGACCGGTTTTCCCGGTAATCCGTATTTGAC (site TCACGCACTGT) | 0.943

— the supplement of paper PMC11208160
